From PubChem BioAssay (NCI) come the findings set out here.

Test systems include NCI-H23 lung; A549 NSCLC; A498 renal; RPMI-8226 leukemia; TK-10 renal; NCI-H226 lung; SF-268 CNS; CAKI-1 renal; UACC-257 melanoma; LOX IMVI melanoma.
Common to all, as to assay: inhibition of tumour cell growth, NCI panel, 48 h

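Values below derive from 48-hour exposures of cells grown in 96-well plates, with endpoints linearly interpolated between the two concentrations bracketing the appropriate inhibition level. The concentration for full growth arrest is given as TGI.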 Where only a bound is given, the exact number is not on record here.

As for `O=C(Nc1cccc([N+](=O)[O-])c1)C(=O)C(C(=O)c1ccccc1F)C1OC(=O)C2C=CC=CC21` (stereo unspecified), the TGI with NCI-H23 lung was more than 100 µM; in the assay with A549 NSCLC, more than 100 µM; with A498 renal, more than 100 µM; with RPMI-8226 leukemia, more than 100 µM; in the assay with TK-10 renal, more than 100 µM; in the assay on NCI-H226 lung, 52.9 µM. Moreover, the TGI in the assay on SF-268 CNS is 70.6 µM; with CAKI-1 renal it was more than 100 µM; with UACC-257 melanoma, more than 100 µM; with LOX IMVI melanoma, 51.7 µM.
Take `C/C=C1/CN2CCC34c5ccccc5N(C)C23C2CC1C4(C(=O)OC)C(O)O2` (stereo unspecified): the TGI in the assay with NCI-H23 lung, in the assay on A549 NSCLC, in the assay with A498 renal, with RPMI-8226 leukemia, with TK-10 renal and in the assay on NCI-H226 lung was more than 100 µM in each case. The TGI in the assay with SF-268 CNS, in the assay on CAKI-1 renal, with UACC-257 melanoma and in the assay on LOX IMVI melanoma was more than 100 µM throughout.
On to `NC(=O)Nc1ccc(C(=O)NCCCNC(=O)c2ccc(NC(N)=O)cc2)cc1`, for which the TGI in the assay with NCI-H23 lung, in the assay on A549 NSCLC, with A498 renal, in the assay with RPMI-8226 leukemia, in the assay with TK-10 renal and with NCI-H226 lung was more than 100 µM each time. Further, the TGI with SF-268 CNS, in the assay on CAKI-1 renal, with UACC-257 melanoma and in the assay with LOX IMVI melanoma was more than 100 µM in each case.
For `Cc1c(NC(=O)c2cc([N+](=O)[O-])cc([N+](=O)[O-])c2)c(=O)n(-c2ccccc2)n1C`, the TGI with NCI-H23 lung, in the assay with A549 NSCLC, in the assay on A498 renal, in the assay on RPMI-8226 leukemia, with TK-10 renal and with NCI-H226 lung was more than 100 µM each time. The TGI in the assay with SF-268 CNS, in the assay with CAKI-1 renal, in the assay on UACC-257 melanoma and in the assay on LOX IMVI melanoma was more than 100 µM throughout.
As to `O=C(Nc1sccc1S(=O)(=O)c1ccc(Cl)cc1)c1ccccc1`, the TGI with NCI-H23 lung, with A549 NSCLC, with A498 renal, with RPMI-8226 leukemia, in the assay on TK-10 renal and with NCI-H226 lung was more than 100 µM throughout. The TGI in the assay on SF-268 CNS, in the assay with CAKI-1 renal, in the assay on UACC-257 melanoma and in the assay with LOX IMVI melanoma was more than 100 µM throughout.
On to `c1ccc(CCN2CCOCC2)nc1`, for which the TGI in the assay on NCI-H23 lung, in the assay with A549 NSCLC, with A498 renal, with RPMI-8226 leukemia, in the assay with TK-10 renal and in the assay on NCI-H226 lung was more than 100 µM throughout. Moreover, the TGI in the assay with SF-268 CNS, with CAKI-1 renal, in the assay with UACC-257 melanoma and with LOX IMVI melanoma was more than 100 µM in each case.
Regarding `Nc1cccc2c1C1=NNC(=O)CC1C2` (stereo unspecified), the TGI was more than 20.3 µM in the assay on NCI-H23 lung; more than 100 µM with A549 NSCLC; more than 100 µM in the assay on A498 renal; more than 100 µM in the assay with RPMI-8226 leukemia; more than 100 µM in the assay on NCI-H226 lung; more than 100 µM in the assay with SF-268 CNS. Further, the TGI in the assay with CAKI-1 renal, in the assay with UACC-257 melanoma and in the assay with LOX IMVI melanoma was more than 100 µM throughout.
For `O=C1C(c2c(O)[nH]c3ccccc23)=Nc2ccc(Br)cc21`, the TGI in the assay with NCI-H23 lung is more than 100 µM; in the assay with A549 NSCLC, more than 100 µM; in the assay on A498 renal it was 21 µM; with RPMI-8226 leukemia, more than 100 µM; with TK-10 renal, 65.2 µM; in the assay with NCI-H226 lung it was 68.1 µM. Moreover, the TGI in the assay with SF-268 CNS is 90.2 µM; in the assay on CAKI-1 renal, more than 100 µM; with UACC-257 melanoma it was more than 100 µM; in the assay on LOX IMVI melanoma it was more than 100 µM.
For `CC(=O)N1CC(=O)NC1=S`, the TGI in the assay on NCI-H23 lung, in the assay with A549 NSCLC, in the assay on RPMI-8226 leukemia, in the assay on TK-10 renal, with NCI-H226 lung and in the assay on SF-268 CNS was more than 100 µM throughout. Moreover, the TGI in the assay with CAKI-1 renal, in the assay with UACC-257 melanoma and in the assay with LOX IMVI melanoma was more than 100 µM in each case.
Take `Cc1ccc([N+](=O)[O-])cc1S(=O)(=O)Nc1ccc(C2=NN(C(=O)c3ccccc3)C(c3cccs3)C2)cc1` (stereo unspecified): the TGI in the assay on NCI-H23 lung was 61.7 µM; in the assay on A549 NSCLC it was more than 100 µM; in the assay with A498 renal, 50.8 µM; in the assay with RPMI-8226 leukemia, more than 100 µM; in the assay on TK-10 renal, 75.1 µM; in the assay with NCI-H226 lung, 88.3 µM. Besides, the TGI is more than 100 µM in the assay on SF-268 CNS, more than 100 µM in the assay with CAKI-1 renal, 72.9 µM in the assay on UACC-257 melanoma and more than 100 µM in the assay on LOX IMVI melanoma.
For the compound `COc1c(O)c(O)c2c(c1O)C(=O)c1cc(C)cc(O)c1C2=O`, the TGI with NCI-H23 lung is more than 100 µM; in the assay with A549 NSCLC it was more than 100 µM; in the assay with A498 renal, more than 100 µM; in the assay on RPMI-8226 leukemia, more than 100 µM; with TK-10 renal, more than 100 µM; in the assay on NCI-H226 lung, more than 93.5 µM. Moreover, the TGI in the assay with SF-268 CNS, in the assay on CAKI-1 renal, in the assay with UACC-257 melanoma and in the assay on LOX IMVI melanoma was more than 100 µM in each case.
Take `N#CCCOCN(CO)c1nc(N(CO)COCCC#N)nc(N(CO)COCCC#N)n1`: the TGI is 71.5 µM in the assay with NCI-H23 lung; 58.3 µM in the assay on A549 NSCLC; more than 100 µM with A498 renal; 56.1 µM in the assay with RPMI-8226 leukemia; 91.2 µM with TK-10 renal; 53.1 µM in the assay on NCI-H226 lung. Also, the TGI in the assay with SF-268 CNS is 45.1 µM; with UACC-257 melanoma it was 63.9 µM; with LOX IMVI melanoma it was more than 100 µM.
Take `CCOC(=O)C(=O)Nc1c(CC)cccc1C(C)CC` (stereo unspecified): the TGI in the assay with NCI-H23 lung, with A549 NSCLC, in the assay on A498 renal, in the assay with RPMI-8226 leukemia, in the assay on TK-10 renal and in the assay with NCI-H226 lung was more than 100 µM throughout. The TGI with SF-268 CNS, with CAKI-1 renal, in the assay with UACC-257 melanoma and with LOX IMVI melanoma was more than 100 µM in each case.
As to `Cc1nc2c(O)cc3c4c(n(Cc5ccccc5)c3c2nc1C)C(=O)CCC4`, the TGI in the assay on NCI-H23 lung, in the assay on A549 NSCLC, with A498 renal, in the assay on RPMI-8226 leukemia, in the assay with TK-10 renal and with NCI-H226 lung was more than 100 µM throughout. The TGI with SF-268 CNS was 50.9 µM; with UACC-257 melanoma, more than 100 µM; in the assay with LOX IMVI melanoma, more than 100 µM.
